# Data from patent US20240270750A1, “IMIDAZOLE-CONTAINING INHIBITORS OF ALK2 KINASE” (BioCryst Pharmaceuticals, Inc., priority 2021, published 2024).
# Counter-ions that a name gives are not always drawn.
# Biological target: T1, ALK2 (Homo sapiens, UniProt Q04771)
# T1 construct: purchased ThermoFisher Scientific (Life Technologies)
# T1 sequence (Q04771 21-509): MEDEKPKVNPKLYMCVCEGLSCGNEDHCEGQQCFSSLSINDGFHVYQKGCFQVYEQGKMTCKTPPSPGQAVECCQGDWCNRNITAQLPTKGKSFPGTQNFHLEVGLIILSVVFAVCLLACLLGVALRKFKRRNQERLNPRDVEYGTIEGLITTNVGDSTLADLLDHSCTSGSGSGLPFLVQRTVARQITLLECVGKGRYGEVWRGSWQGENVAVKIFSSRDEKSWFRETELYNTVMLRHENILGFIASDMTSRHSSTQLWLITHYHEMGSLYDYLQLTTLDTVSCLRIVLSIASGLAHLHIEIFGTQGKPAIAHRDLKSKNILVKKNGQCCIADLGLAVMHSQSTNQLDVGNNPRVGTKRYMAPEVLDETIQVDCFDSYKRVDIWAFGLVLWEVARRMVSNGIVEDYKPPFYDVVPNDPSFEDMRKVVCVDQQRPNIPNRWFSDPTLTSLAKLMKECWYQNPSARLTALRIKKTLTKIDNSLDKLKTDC
# Experiment: LanthaScreen Eu Kinase Binding Assay, ALK2 inhibition
# Conditions: 1 micromolar concentration
# Protocol: Biochemical assays to measure the inhibitory effects of the compounds were performed by ThermoFisher Scientific (Life Technologies). ALK2 inhibition was tested using LanthaScreen™ Eu Kinase Binding Assay screening protocol.
row,inhibition at 1 µM [%],SMILES
1,> 50,"CCC(C)c1nc(Nc2cn(-c3cc(OC)c(OC)c(OC)c3)cn2)c2cnn(C(C)C)c2n1 (stereo not drawn) [Compound 33d, 6-(sec-butyl)-1-isopropyl-N-(1-(3,4,5-trimethoxyphenyl)-1H-imidazol-4-yl)-1H-pyrazolo[3,4-d]pyrimidin-4-amine]"
2,> 50,"COc1cc(-n2cnc(Nc3nc(CC4CC4)nc4c3cnn4C(C)C)c2)cc(OC)c1OC [Compound 34d, 6-(cyclopropylmethyl)-1-isopropyl-N-(1-(3,4,5-trimethoxyphenyl)-1H-imidazol-4-yl)-1H-pyrazolo[3,4-d]pyrimidin-4-amine]"
3,> 50,"COc1cc(-n2cnc(Nc3nc(C4CCC4)nc4c3cnn4C(C)C)c2)cc(OC)c1OC [Compound 35d, 6-cyclobutyl-1-isopropyl-N-(1-(3,4,5-trimethoxyphenyl)-1H-imidazol-4-yl)-1H-pyrazolo[3,4-d]pyrimidin-4-amine]"
4,> 50,"COc1cc(-n2cnc(Nc3nc(CO)nc4c3cnn4C(C)C)c2)cc(OC)c1OC [Compound 36e, (1-isopropyl-4-((1-(3,4,5-trimethoxyphenyl)-1H-imidazol-4-yl)amino)-1H-pyrazolo[3,4-d]pyrimidin-6-yl)methanol]"
5,> 50,"COc1cc(-n2cnc(Nc3nc(C4=CCN(C)CC4)nc4c3cnn4C(C)C)c2)cc(OC)c1OC [Compound 38b, 1-isopropyl-6-(1-methyl-1,2,3,6-tetrahydropyridin-4-yl)-N-(1-(3,4,5-trimethoxyphenyl)-1H-imidazol-4-yl)-1H-pyrazolo[3,4-d]pyrimidin-4-amine]"
6,> 50,"COc1cc(-n2cnc(Nc3nc(C(C)C)nc4c3cnn4-c3ccccc3)c2)cc(OC)c1OC [Compound 39d, 6-isopropyl-1-phenyl-N-(1-(3,4,5-trimethoxyphenyl)-1H-imidazol-4-yl)-1H-pyrazolo[3,4-d]pyrimidin-4-amine]"
7,> 50,"COc1cc(-n2cnc(Nc3nc(C4=CN(C(=O)OC(C)(C)C)CC4)nc4c3cnn4C(C)C)c2)cc(OC)c1OC [Compound 40b, tert-butyl 4-(1-isopropyl-4-((1-(3,4,5-trimethoxyphenyl)-1H-imidazol-4-yl)amino)-1H-pyrazolo[3,4-d]pyrimidin-6-yl)-2,3-dihydro-1H-pyrrole-1-carboxylate]"
8,> 50,"COc1cc(-n2cnc(Nc3nc(C4CCN(C(=O)OC(C)(C)C)C4)nc4c3cnn4C(C)C)c2)cc(OC)c1OC (stereo not drawn) [Compound 41a, tert-butyl 3-(1-isopropyl-4-((1-(3,4,5-trimethoxyphenyl)-1H-imidazol-4-yl)amino)-1H-pyrazolo[3,4-d]pyrimidin-6-yl)pyrrolidine-1-carboxylate]"
9,> 50,"COc1cc(-n2cnc(Nc3nc(C(C)C)nc4c3cnn4-c3ccc(F)cc3F)c2)cc(OC)c1OC [Compound 42d, 1-(2,4-difluorophenyl)-6-isopropyl-N-(1-(3,4,5-trimethoxyphenyl)-1H-imidazol-4-yl)-1H-pyrazolo[3,4-d]pyrimidin-4-amine]"
10,> 50,"COc1cc(-n2cnc(Nc3nc(C(C)C)nc4c3cnn4-c3c(F)cccc3F)c2)cc(OC)c1OC [Compound 43d, 1-(2,6-difluorophenyl)-6-isopropyl-N-(1-(3,4,5-trimethoxyphenyl)-1H-imidazol-4-yl)-1H-pyrazolo[3,4-d]pyrimidin-4-amine]"
11,> 50,"COc1cc(-n2cnc(Nc3nc(C4CCCC4)nc4c3cnn4C(C)C)c2)cc(OC)c1OC [Compound 44e, 6-cyclopentyl-1-isopropyl-N-(1-(3,4,5-trimethoxyphenyl)-1H-imidazol-4-yl)-1H-pyrazolo[3,4-d]pyrimidin-4-amine]"
12,> 50,"COc1cc(-n2cnc(Nc3nc(C4CCOC4)nc4c3cnn4C(C)C)c2)cc(OC)c1OC (stereo not drawn) [Compound 45e, 1-isopropyl-6-(tetrahydrofuran-3-yl)-N-(1-(3,4,5-trimethoxyphenyl)-1H-imidazol-4-yl)-1H-pyrazolo[3,4-d]pyrimidin-4-amine]"
13,> 50,"COc1cc(-n2cnc(Nc3nc(CC(C)C)nc4c3CCC4c3ccccc3)c2)cc(OC)c1OC (stereo not drawn) [Compound 46d, 2-isobutyl-7-phenyl-N-(1-(3,4,5-trimethoxyphenyl)-1H-imidazol-4-yl)-6,7-dihydro-5H-cyclopenta[d]pyrimidin-4-amine]"
14,> 50,"COc1cc(-n2cnc(Nc3nc(C(C)CC(O)CO)nc4c3cnn4C(C)C)c2)cc(OC)c1OC (stereo not drawn) [Compound 47a, 4-(1-isopropyl-4-((1-(3,4,5-trimethoxyphenyl)-1H-imidazol-4-yl)amino)-1H-pyrazolo[3,4-d]pyrimidin-6-yl)pentane-1,2-diol]"
15,> 50,"COc1cc(-n2cnc(Nc3nc(C4CCN(C)CC4)nc4c3cnn4C(C)C)c2)cc(OC)c1OC [Compound 48a, 1-isopropyl-6-(1-methylpiperidin-4-yl)-N-(1-(3,4,5-trimethoxyphenyl)-1H-imidazol-4-yl)-1H-pyrazolo[3,4-d]pyrimidin-4-amine]"
16,> 50,"COc1cc(-n2cnc(Nc3nc(C(C)CCO)nc4c3cnn4C(C)C)c2)cc(OC)c1OC (stereo not drawn) [Compound 49b, 3-(1-isopropyl-4-((1-(3,4,5-trimethoxyphenyl)-1H-imidazol-4-yl)amino)-1H-pyrazolo[3,4-d]pyrimidin-6-yl)butan-1-ol]"
17,> 50,"CNCCC(C)c1nc(Nc2cn(-c3cc(OC)c(OC)c(OC)c3)cn2)c2cnn(C(C)C)c2n1 (stereo not drawn) [Compound 50a, 1-isopropyl-6-(4-(methylamino)butan-2-yl)-N-(1-(3,4,5-trimethoxyphenyl)-1H-imidazol-4-yl)-1H-pyrazolo[3,4-d]pyrimidin-4-amine]"
18,> 50,"C=C(C)c1nc(Nc2cn(-c3cc(OC)c(OC)c(OC)c3)cn2)c2sccc2n1 [Compound 51c, 2-(prop-1-en-2-yl)-N-(1-(3,4,5-trimethoxyphenyl)-1H-imidazol-4-yl)thieno[3,2-d]pyrimidin-4-amine]"
19,> 50,"COc1cc(-n2cnc(Nc3nc(C(C)C)nc4ccsc34)c2)cc(OC)c1OC [Compound 52b, 2-isopropyl-N-(1-(3,4,5-trimethoxyphenyl)-1H-imidazol-4-yl)thieno[3,2-d]pyrimidin-4-amine hydrochloride]"
20,> 50,"C=C(C)c1nc(Nc2cn(-c3cc(OC)c(OC)c(OC)c3)cn2)nc2ccsc12 [Compound 53c, 4-(prop-1-en-2-yl)-N-(1-(3,4,5-trimethoxyphenyl)-1H-imidazol-4-yl)thieno[3,2-d]pyrimidin-2-amine]"
21,> 50,"COc1cc(-n2cnc(Nc3nc(C(C)C)c4sccc4n3)c2)cc(OC)c1OC [Compound 54a, 4-isopropyl-N-(1-(3,4,5-trimethoxyphenyl)-1H-imidazol-4-yl)thieno[3,2-d]pyrimidin-2-amine]"
22,> 50,"C=C(C)c1nc(Nc2cn(-c3cc(OC)c(OC)c(OC)c3)cn2)nc2ccccc12 [Compound 55c, 4-(prop-1-en-2-yl)-N-(1-(3,4,5-trimethoxyphenyl)-1H-imidazol-4-yl)quinazolin-2-amine]"
23,> 50,"COc1cc(-n2cnc(Nc3nc(C(C)C)c4ccccc4n3)c2)cc(OC)c1OC [Compound 56a, 4-isopropyl-N-(1-(3,4,5-trimethoxyphenyl)-1H-imidazol-4-yl)quinazolin-2-amine]"
24,> 50,"COc1cc(-n2cnc(Nc3nc(C4CC(OCc5ccccc5)C4)nc4c3cnn4C(C)C)c2)cc(OC)c1OC (stereo not drawn) [Compound 57e, 6-(3-(benzyloxy)cyclobutyl)-1-isopropyl-N-(1-(3,4,5-trimethoxyphenyl)-1H-imidazol-4-yl)-1H-pyrazolo[3,4-d]pyrimidin-4-amine]"
25,> 50,"COc1cc(-n2cnc(Nc3nc(C4CC(O)C4)nc4c3cnn4C(C)C)c2)cc(OC)c1OC (stereo not drawn) [Compound 58a, 3-(1-isopropyl-4-((1-(3,4,5-trimethoxyphenyl)-1H-imidazol-4-yl)amino)-1H-pyrazolo[3,4-d]pyrimidin-6-yl)cyclobutanol]"
26,> 50,"CCCCCC(C)c1nc(Nc2cn(-c3cc(OC)c(OC)c(OC)c3)cn2)c2cnn(C(C)C)c2n1 (stereo not drawn) [Compound 59e, 6-(heptan-2-yl)-1-isopropyl-N-(1-(3,4,5-trimethoxyphenyl)-1H-imidazol-4-yl)-1H-pyrazolo[3,4-d]pyrimidin-4-amine]"
27,> 50,"C=C(C)c1nc2c(c(Nc3cn(-c4cc(OC)c(OC)c(OC)c4)cn3)n1)CCC2 [Compound 60c, 2-(prop-1-en-2-yl)-N-(1-(3,4,5-trimethoxyphenyl)-1H-imidazol-4-yl)-6,7-dihydro-5H-cyclopenta[d]pyrimidin-4-amine]"
28,> 50,"C=C(C)c1nc(Nc2cn(-c3cc(OC)c(OC)c(OC)c3)cn2)c2cccn2n1 [Compound 61c, 2-(prop-1-en-2-yl)-N-(1-(3,4,5-trimethoxyphenyl)-1H-imidazol-4-yl)pyrrolo[2,1-f][1,2,4]triazin-4-amine]"
29,> 50,"C=C(C)c1nc(Nc2cn(-c3cc(OC)c(OC)c(OC)c3)cn2)c2ncsc2n1 [Compound 63c, 5-(prop-1-en-2-yl)-N-(1-(3,4,5-trimethoxyphenyl)-1H-imidazol-4-yl)thiazolo[5,4-d]pyrimidin-7-amine]"
30,> 50,"C=C(C)c1nc(Nc2cn(-c3cc(OC)c(OC)c(OC)c3)cn2)c2ccc(OC)cc2n1 [Compound 64c, 7-methoxy-2-(prop-1-en-2-yl)-N-(1-(3,4,5-trimethoxyphenyl)-1H-imidazol-4-yl)quinazolin-4-amine]"
